Measurements reported in patent US20220144848A1, “SUBSTITUTED OXOPYRIDINE DERIVATIVES” (Bayer Aktiengesellschaft, priority 2018, published 2022).

Assays:
[1] = target: T1, human plasma kallikrein (Homo sapiens, UniProt P03952); test: Determination of the plasma kallikrein activity (fluorogenic peptide substrate H-Pro-Phe-Arg-AMC); format: biochemical; details: plasma kallikrein from Kordia, 15 min preincubation, 30 min at 22° C., fluorescence; some as mean values from multiple determinations
T1 construct: purchased Kordia
T1 sequence (P03952 391-638 limits assumed): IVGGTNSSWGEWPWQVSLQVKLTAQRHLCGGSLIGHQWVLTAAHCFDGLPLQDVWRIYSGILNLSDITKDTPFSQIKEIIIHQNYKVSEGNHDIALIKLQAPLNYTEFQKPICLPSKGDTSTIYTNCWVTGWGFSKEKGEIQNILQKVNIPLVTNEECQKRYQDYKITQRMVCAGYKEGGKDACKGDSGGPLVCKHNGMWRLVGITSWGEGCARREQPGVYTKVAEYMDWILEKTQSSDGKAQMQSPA
T1 sequence (P03952 20-390 partner limits assumed): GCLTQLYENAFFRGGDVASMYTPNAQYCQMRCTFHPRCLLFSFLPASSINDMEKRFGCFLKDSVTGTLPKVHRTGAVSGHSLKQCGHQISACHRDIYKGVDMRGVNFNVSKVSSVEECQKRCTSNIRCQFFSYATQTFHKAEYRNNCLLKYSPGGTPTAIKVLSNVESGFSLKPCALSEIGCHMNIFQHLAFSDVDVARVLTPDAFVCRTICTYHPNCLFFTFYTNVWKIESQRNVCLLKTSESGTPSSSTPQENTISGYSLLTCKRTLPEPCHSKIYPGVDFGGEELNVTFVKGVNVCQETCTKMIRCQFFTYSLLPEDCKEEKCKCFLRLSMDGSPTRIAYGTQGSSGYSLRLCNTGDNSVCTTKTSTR

[2] = target: T2, human factor XIa (Homo sapiens, UniProt P03951); test: Measurement of FXIa inhibition (fluorogenic peptide substrate Boc-Glu(OBzl)-Ala-Arg-AMC); format: biochemical; details: factor XIa from Kordia, 15 min preincubation, 30 min at 22° C., fluorescence; some as mean values from multiple determinations
T2 construct: purchased Kordia
T2 sequence (P03951 388-625 limits assumed): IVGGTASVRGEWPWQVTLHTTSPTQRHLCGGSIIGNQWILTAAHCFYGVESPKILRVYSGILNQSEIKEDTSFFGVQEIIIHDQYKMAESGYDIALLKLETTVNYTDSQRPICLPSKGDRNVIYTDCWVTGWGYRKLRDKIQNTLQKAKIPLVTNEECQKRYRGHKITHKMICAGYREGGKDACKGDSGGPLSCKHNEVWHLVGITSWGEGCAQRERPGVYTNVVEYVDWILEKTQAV
T2 sequence (P03951 19-387 partner limits assumed): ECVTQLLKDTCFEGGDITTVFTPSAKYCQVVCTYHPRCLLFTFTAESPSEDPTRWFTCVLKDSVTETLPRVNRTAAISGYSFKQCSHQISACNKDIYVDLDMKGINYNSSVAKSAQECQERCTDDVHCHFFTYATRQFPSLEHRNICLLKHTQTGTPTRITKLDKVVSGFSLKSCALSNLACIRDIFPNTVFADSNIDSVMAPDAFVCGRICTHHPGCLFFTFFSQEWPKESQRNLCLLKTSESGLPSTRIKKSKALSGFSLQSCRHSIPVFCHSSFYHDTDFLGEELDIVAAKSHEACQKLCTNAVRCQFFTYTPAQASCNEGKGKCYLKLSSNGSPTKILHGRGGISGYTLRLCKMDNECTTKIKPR

IC50 [1] [nM] | IC50 [2] [nM] | Structure (SMILES)
190 | 9.8 | C[C@@H]1Cc2ccc(Cl)cc2-c2cc(=O)n([C@@H](C)C(=O)Nc3ccc(C(N)=O)cc3)cc2CO1 (single isomer, unassigned) [Example 76]
220 | 9.6 | C[C@@H](C(=O)Nc1ccc(C(N)=O)cc1)n1cc2c(cc1=O)-c1c(ccc(Cl)c1F)C[C@@H](C(F)(F)F)OC2 (single isomer, unassigned) [Example 77]
74 | 1.5 | CO[C@@H](C)C[C@@H](C(=O)Nc1ccc(C(N)=O)cc1)n1cc2c(cc1=O)-c1c(ccc(Cl)c1F)C[C@@H](C(F)(F)F)OC2 (single isomer, unassigned) [Example 78]
250 | 26 | CO[C@@H](C)C[C@@H](C(=O)Nc1ccc(C(N)=O)cc1)n1cc2c(cc1=O)-c1c(ccc(Cl)c1F)C[C@@H](C)O[C@H]2C (single isomer, unassigned) [Example 79]
280 | 9.5 | CO[C@@H](C)C[C@@H](C(=O)Nc1ccc(C(N)=O)cc1)n1cc2c(cc1=O)-c1c(ccc(Cl)c1Cl)C[C@@H](C(F)(F)F)OC2 (single isomer, unassigned) [Example 80]
